This note sets out measurements from US6235717A, “Pharmaceutical compounds” (Glaxo Wellcome Inc., priority 1993, dated 2001).

Non-standard residues stand in square brackets, D forms with d. Residues, ends and D or L forms follow the SMILES beside them. ξ: configuration not given here. *: point of attachment. Phe(4-Br) = N[C@@H](Cc1ccc(Br)cc1)C(=O)O; Phe(4-Cl) = N[C@@H](Cc1ccc(Cl)cc1)C(=O)O; 1Nal = N[C@@H](Cc1cccc2ccccc12)C(=O)O; ξW = NC(Cc1c[nH]c2ccccc12)C(=O)O; Cbz = O=C(OCc1ccccc1)*; Pentanoyl = CCCCC(=O)*; Bn = c1ccc(C*)cc1; OtBu = CC(C)(C)O*

This experiment concerns the target endothelin converting enzyme (ECE) (Sus scrofa, UniProt F1SU04). The experiment can be described thus: "ECE" assay with porcine aortic "ECE" prep, fluorogenic substrate Suc-Ile-Ile-Trp-MCA. The settings on record: porcine aortic endothelial cell ECE prep; 80 μM Suc-Ile-Ile-Trp-MCA; 15-20 min preincubation; overnight at 37° C.; pH 7.0; AMC fluorescence. Type of experiment: biochemical. As to the method: IC50 values were determined as follows:
Porcine Aortic "ECE" Prep
Porcine aortas (22-25) were obtained fresh from a local slaughterhouse and delivered in cold PBS on ice. The aortas were cut open, rinsed with cold PBS and the endothelial cell layer scraped into cold PBS using a scalpel. The endothelial cells were pelleted by centrifugation, rinsed once with cold PBS, and repelleted. The pellet was lysed by addition of 10 volumes of 10 mM Tris-HCl, pH 7.0, containing protease inhibitors and DTS, followed by brief sonication and homogenization. The lysate was centrifuged at 100,000 g for 1 hour and the supernatant applied to a MONOQ FPLC anion exchange column equilibrated in 10 mM Tris-HCl, pH 7.0 (buffer A) which was then developed with an increasing gradient of NaCl in buffer A. The active fractions were aliquoted and stored at -70° C.
The ECE assay was performed in 96-well microplates in a total volume of 200μ/well. The assay cocktail contains 100 mM Tris-HCl, pH 7.0, 20 mM CaCl2, 80 μM substrate (Suc-Ile-Ile-Trp-MCA), enzyme and test compounds. The test compounds were preincubated with the enzyme for 15-20 minutes before initiation of the assay by addition of the substrate. The assay was incubated overnight at 37° C. and the fluorescence intensity caused by the release of AMC was determined using a fluorescence microplate reader (EX360 nm/EM460 nm). IC50 values for compounds were determined by constructing concentration-effect curves for the inhibition of enzyme activity. Concentrations on the linear portion of the inhibition curve were used to determine the IC50 utilizing a Hill plot.

endothelin converting enzyme (ECE), sequence (F1SU04 entry or part of it): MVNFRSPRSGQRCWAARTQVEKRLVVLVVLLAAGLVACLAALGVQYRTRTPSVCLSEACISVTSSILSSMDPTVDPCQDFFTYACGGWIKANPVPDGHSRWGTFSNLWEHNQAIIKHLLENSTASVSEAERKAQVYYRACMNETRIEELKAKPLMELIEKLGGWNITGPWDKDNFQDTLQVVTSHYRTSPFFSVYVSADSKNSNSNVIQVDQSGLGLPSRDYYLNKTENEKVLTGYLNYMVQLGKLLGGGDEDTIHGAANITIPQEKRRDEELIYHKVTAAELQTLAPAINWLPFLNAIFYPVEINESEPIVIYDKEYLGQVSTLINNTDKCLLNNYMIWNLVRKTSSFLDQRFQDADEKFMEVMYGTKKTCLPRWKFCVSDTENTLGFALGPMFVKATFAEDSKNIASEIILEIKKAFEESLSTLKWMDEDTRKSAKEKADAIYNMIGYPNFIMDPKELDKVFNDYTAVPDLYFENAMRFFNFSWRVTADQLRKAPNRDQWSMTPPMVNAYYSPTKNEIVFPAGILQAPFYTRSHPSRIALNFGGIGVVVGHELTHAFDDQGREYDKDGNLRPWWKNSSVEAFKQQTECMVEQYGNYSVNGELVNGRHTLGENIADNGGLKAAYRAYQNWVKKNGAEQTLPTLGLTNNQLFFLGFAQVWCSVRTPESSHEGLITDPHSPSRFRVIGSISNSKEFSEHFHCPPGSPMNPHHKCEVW

A word on the IC50: it is the concentration that gives 50% inhibition. As to `NC(=O)NN=CC(Cc1c[nH]c2ccccc12)NC(=O)[C@H](Cc1c[nH]c2ccccc12)NC(=O)[C@H](Cc1c[nH]c2ccccc12)NC(=O)CCCCCNC(=O)CCCCC1SCC2NC(=O)NC21` (stereo partly drawn) [Example 87, N-[[[5-(hexahydro-2-oxo-1H-thieno[3,4-d]imidazol-4-yl)valeramido]hexanoyl]-L-tryptophanyl-L-tryptophan-L-N-[1-semicarbazonomethyl]2-(1H-indol-3-yl)ethyl]amide], the IC50 is 60 nM.

On to `CCOC(=O)C1OC1C(=O)NCC(Cc1c[nH]c2ccccc12)NC(=O)[C@@H](NC(=O)[C@@H](NC(=O)OCc1ccccc1)[C@@H](C)CC)[C@@H](C)CC` (some centres unmarked) [Example 82], for which the IC50 worked out at 10000 nM.

Compound “N-Benzyloxycarbonyl-S-tryptophanyl-S-tryptophanyl-1-S-formyl-1-(1H-indol-3- yl-methyl)-methylamide [Example 31]” displayed a concentration for half-maximal inhibition (IC50) of 60 nM.

Regarding “N-Benzyloxycarbonyl-L-isoleucyl-L-isoleucine-L-N-[1-glyoxyloyl-2-(phenyl)ethyl]amide [Example 46]”, the half-maximal inhibitory concentration (IC50) is 800 nM.

In the case of `CC[C@H](C)[C@H](NC(=O)OCc1ccccc1)C(=O)N[C@H](C(=O)N[C@H](C=O)Cc1c[nH]c2ccccc12)[C@@H](C)CC` [Example 15, N-Benzyloxycarbonyl-S-isoleucyl-S-isoleucine 1-S-formyl-2-(1H-indol-3-yl]ethylamide] (Cbz-Ile-Ile-Trp-aldehyde), inhibition was half-maximal at 200 nM (IC50).

Compound `CC[C@H](C)[C@H](NC(=O)OCc1ccccc1)C(=O)N[C@H](C(=O)NC(Cc1c[nH]c2ccccc12)CN1C(=O)C=CC1=O)[C@@H](C)CC` (stereo partly drawn) [Example 95, N-[(benzyloxy)carbonyl]-L-isoleucyl-L-isoleucine-L-N-[1-(N-maleimidomethyl)-2-(1H-indol-3-yl)ethyl]amide] registered an IC50 of 1000 nM.

Compound `O=C[C@H](Cc1c[nH]c2ccccc12)NC(=O)[C@H](Cc1c[nH]c2ccccc12)NC(=O)[C@H](Cc1c[nH]c2ccccc12)NC(=O)CCCCC1SCC2NC(=O)NC21` (stereo partly drawn) [Example 91, N-[[5-(hexahydro-2-oxo-1H-thieno[3,4-d]imidazol-4-yl)pentanoyl]-L-tryptophanyl-L-tryptophan-L-N-[1-formyl]2-(1H-indol-3-yl)ethyl]amide] registered a half-inhibitory concentration (IC50) of 5 nM.

Take `CC[C@H](C)[C@H](NC(=O)OCc1ccccc1)C(=O)N[C@H](C(=O)NC(Cc1c[nH]c2ccccc12)NC(=O)COC(C)=O)[C@@H](C)CC` (some centres unmarked) [Example 80]: inhibition was half-maximal at 10000 nM (IC50).

Compound `CC[C@H](C)[C@H](NC(=O)[C@H](CC(=O)OC(C)(C)C)NC(=O)OCc1ccccc1)C(=O)N[C@H](C(=O)N[C@H](C=O)Cc1c[nH]c2ccccc12)[C@@H](C)CC` [Example 64] (Cbz-D(OtBu)IIW-aldehyde) registered a half-maximal inhibitory concentration (IC50) of 60 nM. This IC50 lies about 170-fold lower than the previous one.

`CC[C@H](C)[C@H](NC(=O)OCc1ccccc1)C(=O)N[C@H](C(=O)N[C@H](C=O)Cc1ccc(O)cc1)[C@@H](C)CC` [Example 33, N-Benzyloxycarbonyl-S-isoleucyl-S-isoleucyl-1-S-formyl-1-(4-hydroxy-benzyl)-methylamide] (Cbz-Ile-Ile-Tyr-aldehyde) returned a half-inhibitory concentration (IC50) of 200 nM.

Consider “N-[benzyloxy)carbonyl]-L-aspart-1-yl]-L-isoleucyl-L-isoleucine-L-N-[1-formyl]2-(1H-indol-3-yl)ethyl]amide [Example 65]”, for which half-maximal inhibition (IC50) required 100 nM.

“N-[(benzyloxy)carbonyl]-L-aspart-1-yl]-L-isoleucyl-L-isoleucine-L-N-[1-dimethoxymethyl]2-(1H-indol-3-yl)ethyl]amide [Example 76]” displayed an IC50 of 2600 nM.

`CC[C@H](C)[C@H](NC(=O)OCc1ccccc1)C(=O)N[C@H](C(=O)NC(Cc1ccccc1)C(=O)C(=O)O)[C@@H](C)CC` (some centres unmarked) [Example 88] returned an IC50 of 600 nM.

As for “N-[[[5-(hexahydro-2-oxo-1H-thieno[3,4-d]imidazol-4-yl)valeramido]hexanoyl]- L-isoleucyl-L-isoleucine-L-N-[1-formyl]2-(1H-indol-3-yl-ethyl]amide [Example 67]”, half-maximal inhibition (IC50) required 80 nM.

Compound “N-Benzloxycarbonyl-L-isoleucyl-L-isoleucine-L-N-[1-ethoxalyl]2-(phenyl)ethyl]amide [Example 53]” gave a 50% inhibitory concentration (IC50) of 10000 nM. Compared with the last compound, the IC50 is about 120-fold higher.

Take `CC[C@H](C)[C@H](NC(=O)CCCCCNC(=O)CCCCCNC(=O)c1cc(=O)[nH]c(=O)[nH]1)C(=O)N[C@H](C(=O)NC(C=O)Cc1c[nH]c2ccccc12)[C@@H](C)CC` (some centres unmarked) [Example 69]: the IC50 stood at 60 nM. This IC50 is about 170-fold lower than that of the compound before.

Compound `CC[C@H](C)[C@H](NC(=O)[C@@H](NC(=O)OCc1ccccc1)C(C)C)C(=O)NC(C=O)Cc1c[nH]c2ccccc12` (stereo partly drawn) [Example 24] (Cbz-Val-Ile-[ξW]-aldehyde) yielded a concentration for half-maximal inhibition (IC50) of 1500 nM. Against the preceding compound, the IC50 is about 25-fold higher.

With `CC[C@H](C)[C@H](NC(=O)CCOc1ccccc1)C(=O)N[C@H](C(=O)N[C@H](C=O)Cc1c[nH]c2ccccc12)[C@@H](C)CC` [Example 90], the IC50 worked out at 60 nM. Against the preceding compound, the IC50 is about 25-fold lower.

As to `CC[C@H](C)[C@H](NC(=O)OCc1ccccc1)C(=O)N[C@H](C(=O)NC(CNC(=O)CCl)Cc1c[nH]c2ccccc12)[C@@H](C)CC` (stereo partly drawn) [Example 85, N-(benzyloxy)carbonyl-L-isoleucyl-L-isoleucine-L-N-[1-[(2-chloroacetamido]methy]-2-(1H-indol-3-yl)ethyl]amide], the concentration for half-maximal inhibition (IC50) was 10000 nM.

`CCCCC(=O)N[C@H](C(=O)N[C@H](C(=O)NC(C=O)Cc1c[nH]c2ccccc12)[C@@H](C)CC)[C@@H](C)CC` (stereo partly drawn) [Example 72] (Pentanoyl-Ile-Ile-[ξW]-aldehyde) registered a concentration for half-maximal inhibition (IC50) of 150 nM.

With `O=C[C@H](Cc1ccc(Cl)cc1)NC(=O)[C@H](Cc1ccc(OCc2ccccc2)cc1)NC(=O)[C@H](Cc1cccc2ccccc12)NC(=O)OCc1ccccc1` [Example 39, N-Benzyloxycarbonyl-S-1'naphthylalanyl-S-(O-benzyl)tyrosyl-1-S-formyl-1-(4-chlorophenylmethyl)-methyloamide] (Cbz-[1Nal]-Tyr(Bn)-[Phe(4-Cl)]-aldehyde), the IC50 stood at 15 nM.

For `O=CC(Cc1c[nH]c2ccccc12)NC(=O)[C@H](Cc1cccc2ccccc12)NC(=O)[C@H](Cc1c[nH]c2ccccc12)NC(=O)OCc1ccccc1` (stereo partly drawn) [Example 34, N-Benzyloxycarbonyl-S-tryptophanyl-S-1'naphthylalanyl-1-S-formyl-1-(1H-indol-3-yl-methyl)-methylamide] (Cbz-Trp-[1Nal]-[ξW]-aldehyde), the IC50 was 8 nM.

The compound `CC[C@@H](C)[C@@H](NC(=O)OCc1ccccc1)C(=O)N[C@H](C(=O)N[C@H](C=O)Cc1c[nH]c2ccccc12)[C@@H](C)CC` [Example 77, N-Benzyloxycarbonyl-R-isoleucyl-S-isoleucine-1-S--formyl-2-(1H--indol-3-yl)-ethylamide] (Cbz-[dI]-Ile-Trp-aldehyde) gave an IC50 of 1000 nM.

Compound `CC[C@H](C)[C@H](NC(=O)OCc1ccccc1)C(=O)N[C@@H](Cc1c[nH]c2ccccc12)C(=O)N[C@H](C=O)Cc1c[nH]c2ccccc12` [Example 30, N-Benzyloxycarbonyl-S-isoleucyl-S-tryptophanyl-1-S-formyl-1-(1H-indol-3-yl-methyl)-methylamide] (Cbz-Ile-Trp-Trp-aldehyde) displayed a half-inhibitory concentration (IC50) of 200 nM.

`CCC(C)C(NC(=O)C(CC(C)C)NC(=O)OCc1ccccc1)C(=O)NC(C=O)Cc1c[nH]c2ccccc12` (stereo not drawn) [Example 28] (Cbz-Leu-Ile-Trp-aldehyde; configuration not given here) showed an IC50 of 200 nM.

`CC[C@H](C)[C@H](NC(=O)[C@H](Cc1ccccc1)NC(=O)OCc1ccccc1)C(=O)N[C@H](C=O)Cc1c[nH]c2ccccc12` [Example 25, N-Benzyloxycarbonyl-S-phenylalanyl-S-isoleucyl-1-S-formyl-1-(1H-indol-3-yl-methyl)-methylamide] (Cbz-Phe-Ile-Trp-aldehyde): it took 300 nM to reach half-maximal inhibition (IC50).

`CC[C@H](C)[C@H](NC(=O)OCc1ccccc1)C(=O)N[C@H](C(=O)NC(Cc1ccccc1)C(=O)C(=O)C(=O)OC)[C@@H](C)CC` (stereo partly drawn) [Example 96, N-[(benzyloxy)carbonyl]-L-isoleucyl-L-isoleucine-L-N-[1-(3-methoxycarbonyloxalyl]2-(phenyl)ethyl]amide] displayed an IC50 of 10000 nM.

Regarding `CCOc1ccc(C[C@H](NC(=O)OCc2ccccc2)C(=O)N[C@@H](Cc2ccc(OCc3ccccc3)cc2)C(=O)N[C@H](C=O)Cc2ccc(Br)cc2)cc1` [Example 100, N-Benzyloxycarbonyl-S-(O-ethyl)tyrosyl-S-(O-benzyl)tyrosyl-1-S-formyl-1-(4-bromophenylmethyl)-methylamide] (Cbz-Tyr(Et)-Tyr(Bn)-[Phe(4-Br)]-aldehyde), the 50% inhibitory concentration (IC50) was 60 nM. Compared with the last compound, the IC50 is about 170-fold lower.

Turning to `CC[C@H](C)[C@H](NC(=O)OCc1ccccc1)C(=O)N[C@H](C(=O)N[C@H](C=O)CC(C)C)[C@@H](C)CC` [Example 17, N-Benzyloxycarbonyl-S-isoleucyl-S-isoleucine 1-S-formyl-3-methyl-butylamide] (Cbz-Ile-Ile-Leu-aldehyde), half-maximal inhibition (IC50) was put at 4400 nM. Against the preceding compound, the IC50 is about 73-fold higher.
